Test [1] has as its system Bcl-2. The class given is cell-based. Conditions: MCF-7, 0.04 μM.
Test [2] relates to MCF-7 cells. Put plainly: cells. As to conditions: Homo sapiens, MCF7, read-out: In vitro cytotoxicity IC50, MCF-7.
Test [3] relates to normal human lung cells (WI-38). Conditions: WI-38 versus HepG2.
In test [4] the test system is MCF-7 cells. Kind of test: Apoptosis assay, annexin V-FITC/PI. It counts as cell-based. As to conditions: 0.04 μM, 72 h.
Test [5] concerns normal human lung cells (WI-38). Put plainly: cells. Conditions: WI-38, read-out: WI-38 IC50.
Test [6] has as its system MCF-7 cells. Kind of test: Cell migration and scratch wound healing assay. It counts as cell-based.
The target in test [7] is Human VEGFR-2 (Homo sapiens, UniProt P35968). Kind of test: In vitro VEGFR-2 inhibition, VEGFR-2 ELISA kit. It counts as biochemical. A general note: In an ELISA, binding on a coated surface is turned into a signal by an enzyme label.
Test [8] concerns HepG2 cells. Put plainly: cells. As to conditions: Homo sapiens, HepG2, read-out: In vitro cytotoxicity IC50, HepG2.
In test [9] the test system is MCF-7 cells. Kind of test: Cell cycle analysis by flow cytometry. As to conditions: 0.041 μM, 72 h. The class given is cell-based.

Sequence of Human VEGFR-2 (P35968 20-1356): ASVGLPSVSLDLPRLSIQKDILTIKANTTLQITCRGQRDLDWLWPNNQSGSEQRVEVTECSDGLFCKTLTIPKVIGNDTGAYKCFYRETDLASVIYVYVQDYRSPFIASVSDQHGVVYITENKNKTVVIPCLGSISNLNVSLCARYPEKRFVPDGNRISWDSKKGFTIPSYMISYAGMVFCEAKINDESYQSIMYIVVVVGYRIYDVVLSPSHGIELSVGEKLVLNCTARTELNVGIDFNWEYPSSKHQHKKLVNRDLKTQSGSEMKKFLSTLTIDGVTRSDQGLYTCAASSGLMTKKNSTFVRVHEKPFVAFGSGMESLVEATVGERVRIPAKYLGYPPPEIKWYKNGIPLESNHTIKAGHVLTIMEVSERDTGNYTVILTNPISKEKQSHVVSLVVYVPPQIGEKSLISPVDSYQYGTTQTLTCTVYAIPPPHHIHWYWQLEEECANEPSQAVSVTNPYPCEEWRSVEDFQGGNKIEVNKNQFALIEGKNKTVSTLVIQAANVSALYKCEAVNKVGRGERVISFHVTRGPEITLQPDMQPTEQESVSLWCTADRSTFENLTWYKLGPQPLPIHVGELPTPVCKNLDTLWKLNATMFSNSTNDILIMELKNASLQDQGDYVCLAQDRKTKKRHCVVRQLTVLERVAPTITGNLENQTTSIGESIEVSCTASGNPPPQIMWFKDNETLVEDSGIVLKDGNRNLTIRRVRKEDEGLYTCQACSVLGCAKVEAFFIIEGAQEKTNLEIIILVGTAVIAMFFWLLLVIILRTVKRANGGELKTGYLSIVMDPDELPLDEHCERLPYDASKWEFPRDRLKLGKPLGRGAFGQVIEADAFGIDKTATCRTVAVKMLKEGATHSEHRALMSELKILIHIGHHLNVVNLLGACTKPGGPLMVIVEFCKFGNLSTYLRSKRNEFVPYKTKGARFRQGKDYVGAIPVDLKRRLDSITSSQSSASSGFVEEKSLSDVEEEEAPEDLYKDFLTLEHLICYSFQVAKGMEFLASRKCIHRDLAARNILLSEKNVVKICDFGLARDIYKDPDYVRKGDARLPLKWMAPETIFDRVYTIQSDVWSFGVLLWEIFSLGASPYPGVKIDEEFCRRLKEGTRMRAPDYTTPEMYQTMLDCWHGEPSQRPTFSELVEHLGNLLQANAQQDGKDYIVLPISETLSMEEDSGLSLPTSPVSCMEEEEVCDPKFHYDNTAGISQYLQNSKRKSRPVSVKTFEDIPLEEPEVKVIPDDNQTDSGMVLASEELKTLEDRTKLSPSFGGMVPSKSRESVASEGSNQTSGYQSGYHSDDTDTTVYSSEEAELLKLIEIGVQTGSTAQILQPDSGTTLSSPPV

One may read the IC50 as the concentration that inhibits the measured activity by half. `COc1ccc(-n2nc(C(C)=O)s/c2=N\N=C(/C)c2ccc(NC(C)=O)cc2)cc1` [Compound 14, N-(4-((E)-1-(((Z)-5-acetyl-3-(4-methoxyphenyl)-1,3,4-thiadiazol-2(3H)-ylidene)hydrazineylidene)ethyl)phenyl)acetamide]: the “Lowering of Bcl-2 level versus control” value in [1] is given as 6.2 fold. In addition, the “RT-PCR fold change, Bcl2” value in test [1] (control = 1) came out at 0.159 fold. For the same compound, in test [2], the IC50 was found to be 40 ± 9 nM. Moreover, the “Selectivity index, HepG2” value in test [3] is given as around 1.28. In addition, in test [4], the “Early apoptosis (%)” value was found to be 16.53%, the “Late apoptosis (%)” value turned out to be 29.57%, the “Necrosis (%)” value was determined as 5.95% and the “Necrosis percentage enhancement versus control” value is “four-fold”. In test [4], the “Total apoptosis (%)” value is 52.05% and the “Total apoptosis enhancement versus control” value was found to be 22 fold. Further, in test [5], the IC50 stood at 140 nM. For the same compound, in test [6] (MCF-7, after 48 h), the “Area difference (%)” value is 361.667% and the “RM (rate of migration)” value worked out at 7.532 μm. In test [6] (MCF-7 scratch assay), the “Wound area at 0 h” value came out at 933.000 μm^2, the “Wound area at 24 h” value is on record as 836.333 μm^2, the “Wound area at 48 h” value worked out at 571.333 μm^2 and the “Wound width at 0 h” value came to 932.006 μm. Also, in test [6] (MCF-7 scratch assay), the “Wound width at 24 h” value was 835.443 μm and the “Wound width at 48 h” value is reported as 570.472 μm. Further, in test [7] (VEGFR-2 IC50, as printed in section 3.2.3), the IC50 was 243 nM. Moreover, half-maximal inhibition in test [7] (VEGFR-2 IC50, as printed in the abstract) (IC50) was put at 103 nM. In addition, in [8], the IC50 amounted to 180 ± 6 nM. In [9], the “Cell cycle distribution (%) G0–G1” value is recorded as 68.43%, the “Cell cycle distribution (%) G2/M” value was found to be 9.3%, the “Cell cycle distribution (%) S” value is 22.27% and the “Increase of cell population at G0–G1 phase versus control” value was 1.09 fold.
On to `COc1ccc(-n2nc(C(C)=O)s/c2=N\N=C(/C)c2ccc(NC(=O)c3ccccc3)cc2)cc1` [Compound 18a, N-(4-((E)-1-(((Z)-5-Acetyl-3-(4-methoxyphenyl)-1,3,4-thiadiazol-2(3H)-ylidene) hydrazono)ethyl)phenyl) benzamide], for which the IC50 in test [2] was found to be 160 ± 17 nM; in test [8], 800 ± 12 nM.
The like results for `CC(=O)c1nn(-c2ccc(Cl)cc2)/c(=N/N=C(\C)c2ccc(NC(=O)c3ccccc3)cc2)s1` [Compound 18b, N-(4-((E)-1-(((Z)-5-Acetyl-3-(4-chlorophenyl)-1,3,4-thiadiazol-2(3H)-ylidene) hydrazono)ethyl)phenyl) benzamide] were, in that order, 220 ± 98 nM and 200 ± 11 nM.
For `COc1ccc(-n2nc(C(C)=O)s/c2=N\N=C(/C)c2ccc(NC(=O)c3ccc(Cl)cc3)cc2)cc1` [Compound 18c, N-(4-((E)-1-(((Z)-5-Acetyl-3-(4-methoxyphenyl)-1,3,4-thiadiazol-2(3H)-ylidene) hydrazono)ethyl)phenyl)-4-chlorobenzamide] the same measures were 190 ± 14 nM and 160 ± 32 nM.
Turning to `CC(=O)c1nn(-c2ccc(Cl)cc2)/c(=N/N=C(\C)c2ccc(NC(=O)c3ccc(Cl)cc3)cc2)s1` [Compound 18d, N-(4-((E)-1-(((Z)-5-Acetyl-3-(4-chlorophenyl)-1,3,4-thiadiazol-2(3H)-ylidene) hydrazono)ethyl)phenyl)-4-chlorobenzamide], the IC50 in test [2] worked out at 5000 ± 192 nM; in test [8], 6170 ± 19 nM.
The like results for `COc1ccc(-n2nc(C(C)=O)s/c2=N\N=C(/C)c2ccc(NC(=O)c3ccc(C)cc3)cc2)cc1` [Compound 18e, N-(4-((E)-1-(((Z)-5-Acetyl-3-(4-methoxyphenyl)-1,3,4-thiadiazol-2(3H)-ylidene) hydrazono)ethyl)phenyl)-4-methylbenzamide] were, in that order, 190 ± 45 nM and 210 ± 45 nM.
For `CC(=O)c1nn(-c2ccc(Cl)cc2)/c(=N/N=C(\C)c2ccc(NC(=O)c3ccc(C)cc3)cc2)s1` [Compound 18f, N-(4-((E)-1-(((Z)-5-Acetyl-3-(4-chlorophenyl)-1,3,4-thiadiazol-2(3H)-ylidene) hydrazono)ethyl)phenyl)-4-methylbenzamide], the IC50 in test [2] came to 440 ± 65 nM; in test [8], 180 ± 18 nM.
With `CNC(=O)c1cc(Oc2ccc(NC(=O)Nc3ccc(Cl)c(C(F)(F)F)c3)cc2)ccn1` [Sorafenib, reference compound], the IC50 worked out at 150 ± 13 nM in test [2] and 140 ± 52 nM in test [8].

(Values after publication PMC10728955 (RSC Advances, 2023).)
